Source: ChEMBL document CHEMBL4130413, “1-Aryl-1H- and 2-aryl-2H-1,2,3-triazole derivatives blockade P2X7 receptor in vitro and inflammatory response in vivo” (Eur J Med Chem, 2017)

Key:
[1] = biological target: T1, UDP-glucuronosyltransferase 2B15 (Homo sapiens, UniProt P54855); assay: Drug metabolism assessed as UGT2B15 (unknown origin)-mediated metabolite formation; type: ADME
T1 sequence (P54855 whole entry): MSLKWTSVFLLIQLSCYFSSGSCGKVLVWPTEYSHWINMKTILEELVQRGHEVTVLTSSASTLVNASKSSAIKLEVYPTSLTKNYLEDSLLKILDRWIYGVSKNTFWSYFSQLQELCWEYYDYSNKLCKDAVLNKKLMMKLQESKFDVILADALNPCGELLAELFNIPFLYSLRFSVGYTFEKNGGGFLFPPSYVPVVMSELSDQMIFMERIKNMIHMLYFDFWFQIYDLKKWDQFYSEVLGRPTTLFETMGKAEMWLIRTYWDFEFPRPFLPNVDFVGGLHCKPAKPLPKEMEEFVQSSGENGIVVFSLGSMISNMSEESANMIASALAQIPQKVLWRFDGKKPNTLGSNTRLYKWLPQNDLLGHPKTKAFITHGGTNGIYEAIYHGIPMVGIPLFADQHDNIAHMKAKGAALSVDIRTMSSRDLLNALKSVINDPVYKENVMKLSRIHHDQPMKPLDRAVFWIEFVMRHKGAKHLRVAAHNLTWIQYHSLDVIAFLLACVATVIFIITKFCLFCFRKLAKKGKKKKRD

[2] = biological target: T2, UDP-glucuronosyltransferase 1A10 (Homo sapiens, UniProt Q9HAW8); assay: Drug metabolism assessed as UGT1A10 (unknown origin)-mediated metabolite formation; type: ADME
T2 sequence (Q9HAW8 whole entry): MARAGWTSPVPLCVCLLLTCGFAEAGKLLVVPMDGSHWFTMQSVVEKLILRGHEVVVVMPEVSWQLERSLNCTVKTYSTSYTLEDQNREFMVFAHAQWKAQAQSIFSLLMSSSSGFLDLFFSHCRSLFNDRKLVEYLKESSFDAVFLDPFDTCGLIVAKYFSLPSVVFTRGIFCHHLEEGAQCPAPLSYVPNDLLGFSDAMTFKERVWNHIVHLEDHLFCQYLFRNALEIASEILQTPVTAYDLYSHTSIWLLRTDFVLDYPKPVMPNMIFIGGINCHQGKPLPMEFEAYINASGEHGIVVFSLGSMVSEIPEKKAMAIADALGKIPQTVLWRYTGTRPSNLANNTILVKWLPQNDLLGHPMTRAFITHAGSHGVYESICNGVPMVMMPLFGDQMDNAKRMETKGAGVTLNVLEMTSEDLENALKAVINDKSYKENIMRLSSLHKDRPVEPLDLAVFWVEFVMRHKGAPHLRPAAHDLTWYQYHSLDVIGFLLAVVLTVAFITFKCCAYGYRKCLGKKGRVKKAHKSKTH

[3] = biological target: T3, UDP-glucuronosyltransferase 1A9 (Homo sapiens, UniProt O60656); assay: Drug metabolism assessed as UGT1A9 (unknown origin)-mediated metabolite formation; type: ADME
T3 sequence (O60656 whole entry): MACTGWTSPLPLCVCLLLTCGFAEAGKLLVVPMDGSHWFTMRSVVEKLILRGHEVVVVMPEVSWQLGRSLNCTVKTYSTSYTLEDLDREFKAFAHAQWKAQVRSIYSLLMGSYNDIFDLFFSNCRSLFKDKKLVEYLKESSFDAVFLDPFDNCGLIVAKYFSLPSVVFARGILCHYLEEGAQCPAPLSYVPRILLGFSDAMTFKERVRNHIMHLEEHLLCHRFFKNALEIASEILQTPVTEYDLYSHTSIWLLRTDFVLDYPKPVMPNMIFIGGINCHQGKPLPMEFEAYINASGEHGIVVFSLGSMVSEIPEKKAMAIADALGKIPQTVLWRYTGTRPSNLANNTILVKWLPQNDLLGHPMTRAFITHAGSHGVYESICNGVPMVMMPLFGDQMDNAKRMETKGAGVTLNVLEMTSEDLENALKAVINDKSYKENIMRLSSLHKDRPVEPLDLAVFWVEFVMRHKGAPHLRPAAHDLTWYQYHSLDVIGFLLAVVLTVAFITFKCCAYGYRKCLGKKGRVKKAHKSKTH

[4] = biological target: T4, UDP-glucuronosyltransferase 2B7 (Homo sapiens, UniProt P16662); assay: Drug metabolism assessed as UGT2B7 (unknown origin)-mediated metabolite formation; type: ADME
T4 sequence (P16662 whole entry): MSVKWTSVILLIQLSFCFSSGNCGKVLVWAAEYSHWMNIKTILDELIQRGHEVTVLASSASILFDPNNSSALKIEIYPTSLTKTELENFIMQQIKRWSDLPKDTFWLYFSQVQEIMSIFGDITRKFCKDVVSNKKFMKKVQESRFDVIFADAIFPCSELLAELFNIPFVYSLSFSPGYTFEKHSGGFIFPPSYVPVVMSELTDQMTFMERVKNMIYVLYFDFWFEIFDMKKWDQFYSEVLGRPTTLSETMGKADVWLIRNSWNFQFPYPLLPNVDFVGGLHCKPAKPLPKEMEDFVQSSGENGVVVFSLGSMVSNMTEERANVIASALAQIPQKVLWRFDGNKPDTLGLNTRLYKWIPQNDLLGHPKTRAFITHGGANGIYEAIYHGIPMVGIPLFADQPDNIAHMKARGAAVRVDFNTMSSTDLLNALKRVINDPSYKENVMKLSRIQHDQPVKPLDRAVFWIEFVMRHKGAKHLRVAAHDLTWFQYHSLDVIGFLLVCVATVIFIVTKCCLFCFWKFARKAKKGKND

[5] = biological target: T5, UDP-glucuronosyltransferase 1A3 (Homo sapiens, UniProt P35503); assay: Drug metabolism assessed as UGT1A3 (unknown origin)-mediated metabolite formation; type: ADME
T5 sequence (P35503 whole entry): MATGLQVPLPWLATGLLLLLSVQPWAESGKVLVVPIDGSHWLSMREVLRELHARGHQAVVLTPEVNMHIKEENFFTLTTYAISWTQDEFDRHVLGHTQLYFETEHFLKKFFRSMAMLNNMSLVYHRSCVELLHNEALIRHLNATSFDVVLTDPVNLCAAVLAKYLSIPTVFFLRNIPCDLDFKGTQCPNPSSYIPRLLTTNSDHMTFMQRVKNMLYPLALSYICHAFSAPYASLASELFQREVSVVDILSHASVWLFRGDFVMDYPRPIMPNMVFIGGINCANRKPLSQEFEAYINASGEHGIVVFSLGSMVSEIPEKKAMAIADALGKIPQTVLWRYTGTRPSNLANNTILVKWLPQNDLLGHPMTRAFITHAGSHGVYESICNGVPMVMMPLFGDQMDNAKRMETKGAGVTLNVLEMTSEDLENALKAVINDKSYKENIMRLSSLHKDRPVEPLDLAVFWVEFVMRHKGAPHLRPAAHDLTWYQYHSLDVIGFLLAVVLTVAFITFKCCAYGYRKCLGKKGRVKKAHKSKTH

[6] = biological target: Cytochrome P450 2C19 (Homo sapiens, UniProt P33261)
Sequence of Cytochrome P450 2C19 (P33261 whole entry): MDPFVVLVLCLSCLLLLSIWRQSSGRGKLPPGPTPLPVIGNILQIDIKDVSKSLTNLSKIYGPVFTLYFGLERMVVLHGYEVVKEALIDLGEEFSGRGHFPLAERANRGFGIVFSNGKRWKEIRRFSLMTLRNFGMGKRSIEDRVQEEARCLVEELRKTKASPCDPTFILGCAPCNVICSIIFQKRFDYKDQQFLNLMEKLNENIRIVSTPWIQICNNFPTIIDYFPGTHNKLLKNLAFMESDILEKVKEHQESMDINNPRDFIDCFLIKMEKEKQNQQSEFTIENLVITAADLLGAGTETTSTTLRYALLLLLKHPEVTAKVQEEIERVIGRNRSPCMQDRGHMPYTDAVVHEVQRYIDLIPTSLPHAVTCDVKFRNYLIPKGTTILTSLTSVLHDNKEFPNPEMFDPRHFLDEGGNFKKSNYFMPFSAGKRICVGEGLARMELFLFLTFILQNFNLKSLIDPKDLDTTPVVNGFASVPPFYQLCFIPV
Description: Drug metabolism assessed as CYP2C19 (unknown origin)-mediated metabolite formation

[7] = biological target: Cytochrome P450 2D6 (Homo sapiens, UniProt P10635)
Sequence of Cytochrome P450 2D6 (P10635 whole entry): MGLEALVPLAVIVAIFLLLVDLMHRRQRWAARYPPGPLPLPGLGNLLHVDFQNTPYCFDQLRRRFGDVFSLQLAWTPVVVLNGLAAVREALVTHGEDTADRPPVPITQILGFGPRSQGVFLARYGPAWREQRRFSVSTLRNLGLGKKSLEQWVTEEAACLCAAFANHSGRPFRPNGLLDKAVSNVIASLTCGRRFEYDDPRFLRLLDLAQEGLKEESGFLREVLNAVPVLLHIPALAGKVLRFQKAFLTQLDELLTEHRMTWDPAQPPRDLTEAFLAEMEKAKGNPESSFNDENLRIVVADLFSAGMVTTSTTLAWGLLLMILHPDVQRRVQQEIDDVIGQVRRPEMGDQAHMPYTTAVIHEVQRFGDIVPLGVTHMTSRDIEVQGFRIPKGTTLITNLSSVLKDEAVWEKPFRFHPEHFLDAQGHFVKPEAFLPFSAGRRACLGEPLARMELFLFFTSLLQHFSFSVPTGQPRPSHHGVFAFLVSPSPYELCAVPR
Description: Drug metabolism assessed as CYP2D6 (unknown origin)-mediated metabolite formation

[8] = biological target: Cytochrome P450 2C9 (Homo sapiens, UniProt P11712)
Sequence of Cytochrome P450 2C9 (P11712 whole entry): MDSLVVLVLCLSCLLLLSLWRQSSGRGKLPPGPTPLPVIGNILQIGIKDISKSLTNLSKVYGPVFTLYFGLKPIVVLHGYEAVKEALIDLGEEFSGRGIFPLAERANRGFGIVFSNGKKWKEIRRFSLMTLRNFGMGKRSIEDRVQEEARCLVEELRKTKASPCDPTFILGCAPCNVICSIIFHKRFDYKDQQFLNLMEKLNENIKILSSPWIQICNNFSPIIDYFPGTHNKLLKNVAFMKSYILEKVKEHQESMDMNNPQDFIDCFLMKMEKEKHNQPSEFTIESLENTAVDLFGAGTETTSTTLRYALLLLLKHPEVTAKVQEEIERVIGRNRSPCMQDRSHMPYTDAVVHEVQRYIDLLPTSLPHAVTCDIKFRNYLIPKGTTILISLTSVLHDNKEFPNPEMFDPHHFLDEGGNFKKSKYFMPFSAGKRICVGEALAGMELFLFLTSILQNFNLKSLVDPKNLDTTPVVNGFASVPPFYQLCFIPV
Description: Drug metabolism assessed as CYP2C9 (unknown origin)-mediated metabolite formation

[9] = Kinetic solubility in pH 7.4 phosphate buffer at 1 to 250 uM after 2 hrs; type: physicochemical; details: read-out: Kinetic_solubility

| Drug metabolism [1] | Drug metabolism [2] | Drug metabolism [3] | Drug metabolism [4] | Drug metabolism [5] | Drug metabolism [6] | Drug metabolism [7] | Drug metabolism [8] | solubility kinetic at 2 h [9] | Compound |
| --- | --- | --- | --- | --- | --- | --- | --- | --- | --- |
| Metabolite_Notdetected | Metabolite_Notdetected | Metabolite_Detected | Metabolite_Detected | Metabolite_Detected |  |  |  |  | COc1ccc2cc([C@H](C)C(=O)O)ccc2c1 [NAPROXEN] |
| Metabolite_Notdetected | Metabolite_Notdetected | Metabolite_Notdetected | Metabolite_Detected | Metabolite_Detected | Metabolite_Notdetected | Metabolite_Notdetected | Metabolite_Detected |  | O=C(O)Cc1ccccc1Nc1c(Cl)cccc1Cl [DICLOFENAC] |
| Metabolite_Notdetected | Metabolite_Notdetected | Metabolite_Detected | Metabolite_Detected | Metabolite_Detected | Metabolite_Notdetected | Metabolite_Notdetected | Metabolite_Detected |  | CC(C)Cc1ccc(C(C)C(=O)O)cc1 (stereo not given) [IBUPROFEN] |
| Metabolite_Notdetected | Metabolite_Notdetected | Metabolite_Notdetected | Metabolite_Notdetected | Metabolite_Notdetected | Metabolite_Notdetected | Metabolite_Notdetected | Metabolite_Notdetected | < 250 µM | CCOCc1cn(-c2ccc(Cl)cc2)nn1 |
